Measured values from patent US20230183216A1, “PYRIDIZIN-3(2H)-ONE DERIVATIVES” (Gilead Sciences, Inc., priority 2021, published 2023).

Columns and labels:
[1] = tested on: STAT1 (phosphorylated at Tyr701) in NCI-H1373 cells; assay: Phospho-STAT1 (Tyr701) LANCE Ultra TR-FRET Detection Assay; type: cell-based; conditions: Homo sapiens, 48 hours, induction of pSTAT1, normalized to 10 uM positive control and DMSO, 4-parameter fit, read-out: NH1373 pSTAT1 EC50
Method: Phospho-STAT1 (Tyr701 LANCE Ultra TR-FRET Detection Assay
LANCE Ultra phospho-STAT1 (Tyr701) kits available from Perkin Elmer are designed for the detection of phosphorylated STAT1 in cell lysates using a simple, homogeneous LANCE Ultra sandwich assay (Cat. #TRF4028M). This assay is intended for assessing compound induction of endogenous levels of cellular STAT1 (phosphorylated at Tyr701) in NCI-H1373 cells. The NCI-H1373 cells are cultured in RPMI 1640 media containing 10% heat inactivated FBS, GlutaMAX, 1% Penicillin-Streptomycin. An Echo acoustic liquid handler is used to transfer 60 nanoliters of compound dilutions using the Echo Qualified, 384-well polypropylene microplate clear flat bottom source plates into a Greiner (#781080) cell culture microplate. NCI-H1373 cells are seeded into these compound-spotted culture plates at 30,000 cells/well in a 60 uL volume in growth media. The plates are incubated in a 5% CO2 humidified incubator at 37° C. for 48 hours. […] Briefly, 20 μL of supplemented lysis buffer is added to each well and allowed to shake for 1 hour at 400 rpm. Next, 5 ul of remixed antibody solutions (vol/vol) prepared in detection buffer are added to each well and allowed to incubate at room temperature overnight. After spinning the plate down at 300 rpm for […], the plate is read on an EnVision plate reader set up for Eu3+ Cryptate and fluorescence emission is measured at two different wavelengths (665 nm and 620 nm).

PARP7 = target: T1, PARP7 (Homo sapiens, UniProt Q7Z3E1); assay: biochemical;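 also: MSD light signal quantifying PARP7 captured by a plate-immobilized probe, read after 1.5 h equilibration plus 1.5 h with SULFO-TAG anti-GST antibody at room temperature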
T1 sequence (Q7Z3E1 1-657): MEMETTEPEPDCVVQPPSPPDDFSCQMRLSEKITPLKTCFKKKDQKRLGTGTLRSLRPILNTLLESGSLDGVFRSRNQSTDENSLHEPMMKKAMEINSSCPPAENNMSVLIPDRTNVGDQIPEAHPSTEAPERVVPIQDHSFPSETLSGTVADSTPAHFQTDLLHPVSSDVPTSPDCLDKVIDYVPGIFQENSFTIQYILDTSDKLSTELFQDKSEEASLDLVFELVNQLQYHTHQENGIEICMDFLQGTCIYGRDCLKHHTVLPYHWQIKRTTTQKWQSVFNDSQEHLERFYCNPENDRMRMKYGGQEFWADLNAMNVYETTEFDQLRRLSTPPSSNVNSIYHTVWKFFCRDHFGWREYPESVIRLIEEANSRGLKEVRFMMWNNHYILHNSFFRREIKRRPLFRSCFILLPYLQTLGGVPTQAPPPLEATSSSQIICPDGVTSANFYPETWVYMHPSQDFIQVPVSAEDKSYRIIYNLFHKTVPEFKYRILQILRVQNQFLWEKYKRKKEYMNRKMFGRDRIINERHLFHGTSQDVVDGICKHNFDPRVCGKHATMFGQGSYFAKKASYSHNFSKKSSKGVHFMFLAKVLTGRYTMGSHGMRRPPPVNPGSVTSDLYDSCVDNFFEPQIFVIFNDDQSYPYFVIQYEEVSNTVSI
Method: Probe Displacement Assay for PARP7 Displacement of a biotinylated probe (RBN011147; Wigle et al., Cell Chemical Biology, 2020, pp. 877-887) from the PARP7 NAD+-binding site was measured in vitro using a Mesoscale Discovery electrochemiluminescent assay. […] Next, 10 μl of 10 nM PARP7 protein incubated for 1 hour at room temperature with a dose response curve of each test compound in a Greiner LDV polypropylene plate (#781201) is added to the MSD plate containing the immobilized probe. The interaction is allowed to reach equilibrium for 1.5 hours, and then 10 ul of SULFO-TAG labeled anti-GST antibody (Cat #R32AA-1) is added to each well and allowed to incubate for an additional 1.5 hours at room temperature. Finally, 10 μl of MSD read buffer T (4×, Cat. #R92C-1) is added to each well using a Bravo liquid handler to prevent air bubbles in the wells, and the plates are subsequently read in an MSD instrument. Light intensity is then measured to quantify the amount of PARP7 bound to the immobilized probe on the plate.

| SMILES | EC50 [1] | IC50 (PARP7) |
| --- | --- | --- |
| CN(CCCC(=O)N1CCN(c2ncc(C(F)(F)F)cn2)CC1)c1cc(C(F)(F)F)c(=O)[nH]n1 [Example 32, 6-(methyl(4-oxo-4-(4-(5-(trifluoromethyl)pyrimidin-2-yl)piperazin-1-yl)butyl)amino)-4-(trifluoromethyl)pyridazin-3(2H)-one] | 75.6 nM | 0.233 nM |
| O=C(CC[C@H]1CCCCN1c1cc(C(F)(F)F)c(=O)[nH]n1)N1CCN(c2ncc(C(F)(F)F)cn2)CC1 [Example 33, (R)-6-(2-(3-oxo-3-(4-(5-(trifluoromethyl)pyrimidin-2-yl)piperazin-1-yl)propyl)piperidin-1-yl)-4-(trifluoromethyl)pyridazin-3(2H)-one] | 1220 nM | 2.92 nM |
| O=C(C[C@H]1CCCCN1c1cc(C(F)(F)F)c(=O)[nH]n1)N1CCN(c2ncc(C(F)(F)F)cn2)CC1 [Example 34, (R)-6-(2-(2-oxo-2-(4-(5-(trifluoromethyl)pyrimidin-2-yl)piperazin-1-yl)ethyl)piperidin-1-yl)-4-(trifluoromethyl)pyridazin-3(2H)-one] | 1690 nM | 4.46 nM |
| CCN(CCCC(=O)N1CCN(c2ncc(C(F)(F)F)cn2)CC1)c1cc(C(F)(F)F)c(=O)[nH]n1 [Example 36, 6-(ethyl(4-oxo-4-(4-(5-(trifluoromethyl)pyrimidin-2-yl)piperazin-1-yl)butyl)amino)-4-(trifluoromethyl)pyridazin-3(2H)-one] | 51.6 nM | 0.179 nM |
| CCCN(CCCC(=O)N1CCN(c2ncc(C(F)(F)F)cn2)CC1)c1cc(C(F)(F)F)c(=O)[nH]n1 [Example 37, 6-((4-oxo-4-(4-(5-(trifluoromethyl)pyrimidin-2-yl)piperazin-1-yl)butyl)(propyl)amino)-4-(trifluoromethyl)pyridazin-3(2H)-one] | 134 nM | 0.28 nM |
| O=C(N1CCN(c2ncc(C(F)(F)F)cn2)CC1)N1CCC[C@@H](Nc2cc(C(F)(F)F)c(=O)[nH]n2)C1 [Example 38, (R)-4-(trifluoromethyl)-6-((1-(4-(5-(trifluoromethyl)pyrimidin-2-yl)piperazine-1-carbonyl)piperidin-3-yl)amino)pyridazin-3(2H)-one] | 1870 nM | 2.71 nM |
| O=C(N1CCN(c2ncc(C(F)(F)F)cn2)CC1)N1CCC[C@H](Nc2cc(C(F)(F)F)c(=O)[nH]n2)C1 [Example 39, (S)-4-(trifluoromethyl)-6-((1-(4-(5-(trifluoromethyl)pyrimidin-2-yl)piperazine-1-carbonyl)piperidin-3-yl)amino)pyridazin-3(2H)-one] | 1030 nM | 0.719 nM |
| O=C(CC[C@@H](Nc1cc(C(F)(F)F)c(=O)[nH]n1)C(F)F)N1CCN(c2ncc(C(F)(F)F)cn2)CC1 [Example 40, (R)-6-((1,1-difluoro-5-oxo-5-(4-(5-(trifluoromethyl)pyrimidin-2-yl)piperazin-1-yl)pentan-2-yl)amino)-4-(trifluoromethyl)pyridazin-3(2H)-one] | 63 nM | 0.275 nM |
| O=C(CC[C@@H]1COCCN1c1cc(C(F)(F)F)c(=O)[nH]n1)N1CCN(c2ncc(C(F)(F)F)cn2)CC1 [Example 42, (R)-6-(3-(3-oxo-3-(4-(5-(trifluoromethyl)pyrimidin-2-yl)piperazin-1-yl)propyl)morpholino)-4-(trifluoromethyl)pyridazin-3(2H)-one] | 901 nM | 0.598 nM |
| O=C([C@@H]1CN(c2cc(C(F)(F)F)c(=O)[nH]n2)CCO1)N1CCN(c2ncc(C(F)(F)F)cn2)CC1 [Example 43, (S)-4-(trifluoromethyl)-6-(2-(4-(5-(trifluoromethyl)pyrimidin-2-yl)piperazine-1-carbonyl)morpholino)pyridazin-3(2H)-one] | ≥ 10000 nM | 20.1 nM |
| O=C(CCCN(c1ccccc1)c1cc(C(F)(F)F)c(=O)[nH]n1)N1CCN(c2ncc(C(F)(F)F)cn2)CC1 [Example 44, 6-((4-oxo-4-(4-(5-(trifluoromethyl)pyrimidin-2-yl)piperazin-1-yl)butyl)(phenyl)amino)-4-(trifluoromethyl)pyridazin-3(2H)-one] | 74.1 nM | 0.151 nM |
| O=C(CCC1Cc2ccccc2N1c1cc(C(F)(F)F)c(=O)[nH]n1)N1CCN(c2ncc(C(F)(F)F)cn2)CC1 (centres unmarked) [Example 47, 3-[2-[3-oxo-3-[4-[5-(trifluoromethyl)pyrimidin-2-yl]piperazin-1-yl]propyl]indolin-1-yl]-5-(trifluoromethyl)-1H-pyridazin-6-one] | 179 nM | 0.232 nM |
| O=C([C@@H]1Cc2ccccc2N1c1cc(C(F)(F)F)c(=O)[nH]n1)N1CCN(c2ncc(C(F)(F)F)cn2)CC1 [Example 49, 5-(trifluoromethyl)-3-[(2S)-2-[4-[5-(trifluoromethyl)pyrimidin-2-yl]piperazine-1-carbonyl]indolin-1-yl]-1H-pyridazin-6-one] | 858 nM | 1.1 nM |
| O=C(CC[C@@H]1Cc2ccccc2N1c1cc(C(F)(F)F)c(=O)[nH]n1)N1CCN(c2ncc(C(F)(F)F)cn2)CC1 [Example 50, 3-[(2R)-2-[3-oxo-3-[4-[5-(trifluoromethyl)pyrimidin-2-yl]piperazin-1-yl]propyl]indolin-1-yl]-5-(trifluoromethyl)-1H-pyridazin-6-one] | 221 nM | 0.357 nM |
| [2H]C1([2H])N(C(=O)CCCNc2cc(C(F)(F)F)c(=O)[nH]n2)C([2H])([2H])C([2H])([2H])N(c2ncc(C(F)(F)F)cn2)C1([2H])[2H] [Example 51, 3-[[4-[2,2,3,3,5,5,6,6-octadeuterio-4-[5-(trifluoromethyl)pyrimidin-2-yl]piperazin-1-yl]-4-oxo-butyl]amino]-5-(trifluoromethyl)-1H-pyridazin-6-one] | 123 nM | 0.165 nM |
| [2H]C1([2H])N(C(=O)CCCCc2cc(C(F)(F)F)c(=O)[nH]n2)C([2H])([2H])C([2H])([2H])N(c2ncc(C(F)(F)F)cn2)C1([2H])[2H] [Example 52, 3-[5-[2,2,3,3,5,5,6,6-octadeuterio-4-[5-(trifluoromethyl)pyrimidin-2-yl]piperazin-1-yl]-5-oxo-pentyl]-5-(trifluoromethyl)-1H-pyridazin-6-one] | 209 nM | 0.359 nM |
| O=C(CCCNc1cc(C(F)(F)F)c(=O)[nH]n1)N1CCN(c2ccc(C(F)(F)F)cn2)CC1 [Example 53, 3-[[4-oxo-4-[4-[5-(trifluoromethyl)-2-pyridyl]piperazin-1-yl]butyl]amino]-5-(trifluoromethyl)-1H-pyridazin-6-one] | 218 nM | 0.34 nM |
| N#Cc1ccc(N2CCN(C(=O)CCCNc3cc(C(F)(F)F)c(=O)[nH]n3)CC2)nc1 [Example 54, 6-[4-[4-[[6-oxo-5-(trifluoromethyl)-1H-pyridazin-3-yl]amino]butanoyl]piperazin-1-yl]pyridine-3-carbonitrile] | 690 nM | 0.408 nM |
| O=C([C@@H]1CCN1c1cc(C(F)(F)F)c(=O)[nH]n1)N1CCN(c2ncc(C(F)(F)F)cn2)CC1 [Example 55, 5-(trifluoromethyl)-3-[(2S)-2-[4-[5-(trifluoromethyl)pyrimidin-2-yl]piperazine-1-carbonyl]azetidin-1-yl]-1H-pyridazin-6-one] | 282 nM | 0.339 nM |
